Literature values in patent US7056858B2 (Varian, Inc., priority 2002, dated 2006).

Details: for π value: dipolarity/dipolarizability descriptor; for Σα value: hydrogen-bond acidity descriptor; for Σβ value: hydrogen-bond basicity descriptor

SMILES | π value | Σα value | Σβ value
CN(C)C=O [N,N dimethylformamide] | 0.56 | 0.00 | 0.44
CN1CCCC1=O [N-methylpyrrolidone] | 0.57 | 0.00 | 0.43
NC=O [formamide] | 0.46 | 0.33 | 0.21
